In patent EP0368624A2, “Method and composition for stabilizing and solubilizing latex reagents” (Biotrack, Inc., priority 1988, dated 1990):

Tests used:
[1] = Recovery of activity of antibody-latex reagent after drying on plastic (turbidimetric agglutination rate vs liquid control)
Source text: An agglutinating polymer was made by covalent attachment of about nine molecules of a peptide antigen to polyaspartic acid (M=15,000). A latex reagent was made by adsorption of a monoclonal antibody (which binds to the peptide antigen) to small latex particles (85 nm diameter) by adsorption. […] The mixture was aspirated into a temperature controlled flow cell of a spectrophotometer with a 1 cm optical path length and rapidly heated to […]. The change of apparent absorbance at 540 nm was then recorded over 20s.
Liquid was removed by exposure to desiccant under a variety of conditions (flowing air, flowing dry N₂, or vacuum).
Additives were added to the latex suspension at the indicated concentrations prior to drying. Recovery is given in Table 2 as a percentage of the activity of a non-dried (liquid) control. […]

[2] = Agglutination of dried hepatitis B virus core antigen coated latex in cartridge with serum samples; set-up: key: +: A positive reaction was recorded if the latex particles were agglutinated at the end of the track; details: serum sample containing antibodies to hepatitis virus core antigen
Protocol: Antigen coated latex (prepared as in Example 5) (1 µL x 1.0% w/v suspended in 0·1M glycine pH 8·4 containing 0·1 6 M NaCl and 3 mM Sodium Azide either with or without 5% sucrose) was coated on the surface of piece of PETG plastic. After drying under a stream of dry nitrogen, the piece was incorporated into a cartridge by lamination of a track excised from double sided adhesive tape (4 mill thick) as described in USP 4,756,884. To test the activity of the dry reagent films, serum samples containing or not containing antibodies to hepatitis virus core antigen were applied to the sample application site and the reaction between the sample and the reagent film observed as the sample flowed over the film and the mixture was drawn down the part of the track distal from the sample application site. A positive reaction was recorded if the latex particles were agglutinated at the end of the track.

[3] = additive concentration 5 % in the aqueous latex suspension applied to the plastic

Structure (SMILES) | Activity (%) Ref = Liq [1, 3] [%] | also measured
OC[C@@H](O)C(O)[C@H](O)CO [D-arabitol] | 101 | –
OC[C@@H](O)[C@H](O)[C@@H](O)CO [D-xylitol] | 92 | –
OC[C@@H](O)[C@@H](O)[C@H](O)[C@H](O)CO [Mannitol] | – | Activity (%) Ref = Liq ([1]; additive concentration 4 % in the aqueous latex suspension applied to the plastic): 0%
OC[C@@H](O)[C@H](O)[C@@H](O)CO [L-xylitol] | 94 | –
OC[C@@H](O)[C@@H](O)[C@H](O)[C@@H](O)CO [Sorbitol] | 5 | –
O=C([O-])[C@H](O)[C@@H](O)[C@H](O)[C@H](O)CO.[Na+] [35D-Gluconic Acid-Na+, D-Gluconic Acid-Na+] | 41 | –
OC[C@H]1O[C@@](CO)(O[C@H]2O[C@H](CO)[C@@H](O)[C@H](O)[C@H]2O)[C@@H](O)[C@@H]1O [Sucrose] | – | Agglutination + sample [2]: +
Cl.N[C@H]1C(O)O[C@H](CO)[C@@H](O)[C@@H]1O (stereo partly drawn) [D-glucosamine-HCl] | 25 | –
OC[C@@H](O)[C@@H](O)[C@@H](O)CO [Ribitol] | 70 | –
OC[C@H](O)C(O)[C@@H](O)CO [L-arabitol] | 94 | –
